From ChEMBL document CHEMBL1201862, “PubChem BioAssay data set” (2004)
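Test compounds were applied to cells in 96-well plates for 48 hours at 5 doses. GI50 is the concentration that inhibits growth by half.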 Active and inactive are the calls of the source. Rule as the data show it: active = GI50 up to about 1.1 µM and inactive = higher.

Assays:
Assay in all cases: NCI anticancer screen, dose series, 48 h
786-0 = system: 786-0
A498 = system: A498
A549 = system: A549
ACHN = system: ACHN
CAKI-1 = system: CAKI-1
CCRF-CEM = system: CCRF-CEM
COLO 205 = system: COLO 205
DU-145 = system: DU-145
EKVX = system: EKVX
HCC 2998 = system: HCC 2998
HCT-116 = system: HCT-116
HCT-15 = system: HCT-15
HOP-62 = system: HOP-62
HOP-92 = system: HOP-92
HT-29 = system: HT-29
Hs-578T = system: Hs-578T
IGROV-1 = system: IGROV-1
K562 = system: K562
KM12 = system: KM12
LOX IMVI = system: LOX IMVI
M14 = system: M14
MCF7 = system: MCF7
MDA-MB-231 = system: MDA-MB-231
MDA-MB-435 = system: MDA-MB-435
MDA-N = system: MDA-N
MOLT-4 = system: MOLT-4
Malme-3M = system: Malme-3M
NCI-H226 = system: NCI-H226
NCI-H23 = system: NCI-H23
NCI-H460 = system: NCI-H460
NCI-H522 = system: NCI-H522
NCI/ADR-RES = system: NCI/ADR-RES
OVCAR-3 = system: OVCAR-3
OVCAR-4 = system: OVCAR-4
OVCAR-5 = system: OVCAR-5
OVCAR-8 = system: OVCAR-8
PC-3 = system: PC-3
RPMI-8226 = system: RPMI-8226
RXF 393 = system: RXF 393
SF-268 = system: SF-268
SF-295 = system: SF-295
SF-539 = system: SF-539
SK-MEL-28 = system: SK-MEL-28
SK-MEL-2 = system: SK-MEL-2
SK-MEL-5 = system: SK-MEL-5
SK-OV-3 = system: SK-OV-3
SN12C = system: SN12C
SNB-19 = system: SNB-19
SNB-75 = system: SNB-75
SR = system: SR
SW-620 = system: SW-620
T47D = system: T47D
TK-10 = system: TK-10
U-251 = system: U-251
UACC-257 = system: UACC-257
UACC-62 = system: UACC-62
UO-31 = system: UO-31

Measured: GI50

C[Si](C)(C)CCOCN(C(=O)C1=CCC2(CC1)OCCO2)c1ccccc1I
active: HOP-92 0.121 µM
17.8 µM: HCT-15
inactive: 786-0 17.7 µM | A498 12.4 µM | A549 23.6 µM | ACHN 22.6 µM | CAKI-1 24.2 µM | CCRF-CEM 25.4 µM | COLO 205 37.4 µM | DU-145 25.4 µM | EKVX 14.8 µM | HCC 2998 21.1 µM | HCT-116 14.1 µM | HOP-62 20.7 µM | HT-29 34.3 µM | Hs-578T 15.8 µM | IGROV-1 24.6 µM | K562 8.02 µM | KM12 18.7 µM | LOX IMVI 29 µM | M14 18.2 µM | MCF7 14.2 µM | MDA-MB-231 22.8 µM | MDA-MB-435 13.9 µM | MDA-N 20.6 µM | MOLT-4 10.8 µM | Malme-3M 35.7 µM | NCI-H226 22.9 µM | NCI-H23 18.6 µM | NCI-H460 20 µM | NCI-H522 21.1 µM | NCI/ADR-RES 26.7 µM | OVCAR-3 21.6 µM | OVCAR-4 21.1 µM | OVCAR-5 20 µM | OVCAR-8 32.5 µM | PC-3 12.6 µM | RPMI-8226 11.9 µM | RXF 393 17.5 µM | SF-268 21.8 µM | SF-295 15.5 µM | SF-539 22.1 µM | SK-MEL-28 19.4 µM | SK-MEL-2 17.5 µM | SK-MEL-5 11.3 µM | SK-OV-3 16.8 µM | SN12C 28.1 µM | SNB-19 19.2 µM | SNB-75 17.7 µM | SR 15.8 µM | SW-620 22.3 µM | T47D 12.8 µM | TK-10 27.6 µM | U-251 24.9 µM | UACC-257 20.9 µM | UACC-62 16.9 µM | UO-31 19.4 µM
